Results as given in patent publication US20240228572A1 (i2o Therapeutics, Inc., priority 2020, published 2024).
*1 amine or outer side, *2 acyl side, *3 side chain or, on linkers, in order; H or OH if unused. Where a SMILES comes first, the peptide text is derived from it. Side-chain parts run from the residue outwards. [ ]: non-standard residue; d: D form. The star is where a group is joined. C20 diacid = O=C(O)CCCCCCCCCCCCCCCCCCC(=O)*; γGlu = O=C(O)[C@H](CCC(=O)[*:2])N[*:1]; AEEA = NCCOCCOCC(=O)O; Aib = CC(C)(N)C(=O)O

Assays:
[1] = target: T1, human Glucagon receptor (GCGR) (Homo sapiens, UniProt P47871); experiment: cAMP accumulation assay, CHO-K1 cells expressing human GCGR; type: cell-based; settings: mean pEC50, Table 10
T1 construct: A cDNA fragment encoding the full-length open reading frame of the human GCGR; expressed in transfected cells; host or cells: CHO-K1, pcDNA3.1+, Lipofectamine 2000
Text: (§1) In the presence of the non-specific cAMP/cGMP phosphodiesterase inhibitor, 3-isobutyl-1-methylxanthine (IBMX), accumulating cAMP can be measured in vitro using common detection methods. Thus, it is possible to estimate an in vitro potency (pEC50) for peptides activating each of these receptors using fit dose-response curves for cAMP accumulation.
A cDNA fragment encoding the full-length open reading frame of the cynomolgus monkey GLP-1R (Genebank accession #XM_028847603 was cloned into pcDNA3.1+ for expression in CHO-K1 cells. A cDNA fragment encoding the full-length open reading frame of the human GCGR (Genebank accession #NM_000160 was cloned into pcDNA3.1+ for expression in CHO-K1 cells. A cDNA fragment encoding the full-length open reading frame of the rat GCGR (Genebank accession #NM_12091 was cloned into pcDNA3.1+ for expression in CHO-K1 cells. A cDNA fragment encoding the full-length open reading frame of the cynomolgus monkey GCGR (Genebank accession #XM_005585255 was cloned into pcDNA3.1+ for expression in CHO-K1 cells.
(§2) On day 1, CHO-K1 cells were plated at 1.5 million cells per T75 flask in 90% F12-K media supplemented with 10% FBS. On day 3 cells were transfected with 40 mcg of each expression plasmid using Lipofectamine 2000 transfection reagent. On day 5, cells were dispensed at 1000 cells per well in white 384-well OptiPlates in 5 mcL of assay buffer consisting of 1×HBSS, 5 mM HEPES, 0.5 mM IBMX, and 0.1% casein.
(§3) Peptides were serially diluted 4-fold in assay buffer to final concentrations ranging from 1×10^−9 M to 9.5×10^−16 M. Two assay controls consisting of 50 mcM forskolin (cAMP system maximum) or assay buffer only (cAMP system minimum) were also prepared. Five microliters of each peptide-concentration, or assay control, was added to triplicate wells and incubated for thirty minutes at room temperature. During this incubation step a 4× europium labelled cAMP tracer solution and a 4× Ulight®-anti-cAMP solution (consisting of an anti-cAMP monoclonal antibody labelled with Ulight™ dye) was prepared according to the manufacturer's protocol (PerkinElmer LANCE Ultra cAMP kit). Following this incubation, 5 mcL europium labelled cAMP and 5 mcL Ulight anti-cAMP antibody was added to each well. The plate was covered to prevent evaporation and incubated for 60 minutes at room temperature in the dark. Plates were read on an Envision fluorescent plate reader (PerkinElmer).
(§4) Test values were first normalized to the system maximum and system minimum averaged values in Excel using the formula: (test value−system min average)/(system max average -system min average)*100. Normalized test values represent a baseline corrected percentage of the system maximum cAMP response induced by forskolin. Data from up to 3 replicate tests were analyzed for each peptide. Potency values were estimated using GraphPad Prism software (v7.04) by fitting data to a 4-parameter logistic curve model: Y=Bottom+(Top−Bottom)/(1+10^((LogEC50−X))). The Hill slope was constrained to 1.0. EC50 values were converted to pEC50 values using the formula: pEC50=−Log (EC50).

[2] = target: T2, human GLP-1 receptor (GLP-1R) (Homo sapiens, UniProt P43220); experiment: cAMP accumulation assay, CHO-K1 cells stably expressing human GLP-1R; type: cell-based; settings: cAMP accumulation, mean pEC50, Table 10
T2 construct: expressed in transfected cells
Description: as §1
CHO-K1 cells stably expressing human GLP-1R (Genebank accession #NM_002062) were grown in 90% F12-K media supplemented with 10% FBS and 250 μg/ml G418.
as §2, §3, §4

T1 sequence (P47871 26-477): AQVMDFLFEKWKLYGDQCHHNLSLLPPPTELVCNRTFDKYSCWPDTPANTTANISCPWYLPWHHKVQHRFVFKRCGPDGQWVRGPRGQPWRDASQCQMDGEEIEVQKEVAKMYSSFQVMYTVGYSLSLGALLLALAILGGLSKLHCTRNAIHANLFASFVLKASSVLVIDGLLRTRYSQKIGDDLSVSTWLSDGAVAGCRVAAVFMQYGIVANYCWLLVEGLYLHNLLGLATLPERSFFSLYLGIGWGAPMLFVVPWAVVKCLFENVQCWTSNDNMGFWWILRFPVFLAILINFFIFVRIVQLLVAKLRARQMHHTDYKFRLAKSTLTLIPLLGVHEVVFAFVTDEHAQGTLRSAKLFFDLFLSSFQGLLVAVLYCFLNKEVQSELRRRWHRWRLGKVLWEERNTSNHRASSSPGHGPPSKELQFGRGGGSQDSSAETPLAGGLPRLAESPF
T2 sequence (P43220 24-463): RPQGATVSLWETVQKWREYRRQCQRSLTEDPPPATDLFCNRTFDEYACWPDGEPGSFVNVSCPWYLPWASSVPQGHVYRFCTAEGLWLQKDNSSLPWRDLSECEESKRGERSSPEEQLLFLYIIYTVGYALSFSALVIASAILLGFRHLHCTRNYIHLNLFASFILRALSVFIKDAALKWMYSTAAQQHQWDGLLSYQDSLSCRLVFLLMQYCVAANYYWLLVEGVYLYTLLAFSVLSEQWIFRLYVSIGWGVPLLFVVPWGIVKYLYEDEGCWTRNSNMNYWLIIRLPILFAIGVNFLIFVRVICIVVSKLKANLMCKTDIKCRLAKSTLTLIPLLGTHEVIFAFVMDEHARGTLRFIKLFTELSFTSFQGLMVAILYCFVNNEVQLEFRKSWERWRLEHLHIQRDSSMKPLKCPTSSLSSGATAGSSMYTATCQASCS

**Q.** `CC(C)C[C@H](NC(=O)[C@H](Cc1ccc(O)cc1)NC(=O)[C@H](CCCCN)NC(=O)[C@H](CO)NC(=O)[C@H](Cc1ccc(O)cc1)NC(=O)[C@H](CC(=O)O)NC(=O)[C@H](CO)NC(=O)[C@@H](NC(=O)[C@H](Cc1ccccc1)NC(=O)[C@@H](NC(=O)CNC(=O)[C@H](Cc1c[nH]cn1)NC(=O)[C@H](CO)NC(=O)[C@@H](N)Cc1ccc(O)cc1)[C@@H](C)O)[C@@H](C)O)C(=O)N[C@@H](CCCCNC(=O)CC[C@H](NC(=O)CC[C@H](NC(=O)COCCOCCNC(=O)CCCCCCCCCCCCCCCCCCC(=O)O)C(=O)O)C(=O)O)C(=O)NC(C)(C)C(=O)N[C@@H](CCCCN)C(=O)N[C@@H](Cc1ccc(O)cc1)C(=O)N[C@@H](C)C(=O)N[C@@H](CCC(N)=O)C(=O)N[C@@H](CCC(=O)O)C(=O)N[C@@H](Cc1ccccc1)C(=O)N[C@H](C(=O)NC(C)(C)C(=O)N[C@@H](Cc1c[nH]c2ccccc12)C(=O)N[C@@H](CC(C)C)C(=O)N[C@@H](CCC(=O)O)C(=O)N[C@@H](CC(=O)O)C(=O)N[C@@H](CCC(=O)O)C(=O)N1CCC[C@H]1C(=O)N[C@@H](CO)C(=O)N[C@@H](CO)C(=O)NCC(=O)N[C@@H](C)C(=O)N1CCC[C@H]1C(=O)N1CCC[C@H]1C(=O)N1CCC[C@H]1C(=O)N[C@@H](CO)C(=O)O)C(C)C` [Compound A1] (H-YSHGTFTSDYSKYLK([γGlu-γGlu-AEEA-C20 diacid])[Aib]KYAQEFV[Aib]WLEDEPSSGAPPPS-OH) was tested. Which EC50 [1] did it give?
**A.** 0.00316 nM

**Q.** With `CC(C)C[C@H](NC(=O)[C@H](Cc1ccc(O)cc1)NC(=O)[C@H](CCCCN)NC(=O)[C@H](CO)NC(=O)[C@H](Cc1ccc(O)cc1)NC(=O)[C@H](CC(=O)O)NC(=O)[C@H](CO)NC(=O)[C@@H](NC(=O)[C@H](Cc1ccccc1)NC(=O)[C@@H](NC(=O)CNC(=O)[C@H](Cc1c[nH]cn1)NC(=O)[C@H](CO)NC(=O)[C@@H](N)Cc1ccc(O)cc1)[C@@H](C)O)[C@@H](C)O)C(=O)N[C@@H](CC(=O)O)C(=O)NC(C)(C)C(=O)N[C@@H](CCCCN)C(=O)N[C@@H](CCCCNC(=O)CC[C@H](NC(=O)CC[C@H](NC(=O)COCCOCCNC(=O)CCCCCCCCCCCCCCCCCCC(=O)O)C(=O)O)C(=O)O)C(=O)N[C@@H](C)C(=O)N[C@@H](CCC(N)=O)C(=O)N[C@@H](CCC(=O)O)C(=O)N[C@@H](Cc1ccccc1)C(=O)N[C@H](C(=O)NC(C)(C)C(=O)N[C@@H](Cc1c[nH]c2ccccc12)C(=O)N[C@@H](CC(C)C)C(=O)N[C@@H](CCC(=O)O)C(=O)N[C@@H](CC(=O)O)C(=O)N[C@@H](CCC(=O)O)C(=O)N1CCC[C@H]1C(=O)N[C@@H](CO)C(=O)N[C@@H](CO)C(=O)NCC(=O)N[C@@H](C)C(=O)N1CCC[C@H]1C(=O)N1CCC[C@H]1C(=O)N1CCC[C@H]1C(=O)N[C@@H](CO)C(=O)O)C(C)C` [Compound A4] (H-YSHGTFTSDYSKYLD[Aib]KK([γGlu-γGlu-AEEA-C20 diacid])AQEFV[Aib]WLEDEPSSGAPPPS-OH; N-terminus assumed) as the compound, how does the EC50 [1] read?
**A.** 0.002 nM

**Q.** With `CC(C)C[C@H](NC(=O)[C@H](Cc1ccc(O)cc1)NC(=O)[C@H](CCCCN)NC(=O)[C@H](CO)NC(=O)[C@H](Cc1ccc(O)cc1)NC(=O)[C@H](CC(=O)O)NC(=O)[C@H](CO)NC(=O)[C@@H](NC(=O)[C@H](Cc1ccccc1)NC(=O)[C@@H](NC(=O)CNC(=O)[C@H](Cc1c[nH]cn1)NC(=O)[C@H](CO)NC(=O)[C@@H](N)Cc1ccc(O)cc1)[C@@H](C)O)[C@@H](C)O)C(=O)N[C@@H](CC(=O)O)C(=O)NC(C)(C)C(=O)N[C@@H](CCCCN)C(=O)N[C@@H](Cc1ccc(O)cc1)C(=O)N[C@@H](C)C(=O)N[C@@H](CCCCNC(=O)CC[C@H](NC(=O)CC[C@H](NC(=O)COCCOCCNC(=O)CCCCCCCCCCCCCCCCCCC(=O)O)C(=O)O)C(=O)O)C(=O)N[C@@H](CCC(=O)O)C(=O)N[C@@H](Cc1ccccc1)C(=O)N[C@H](C(=O)NC(C)(C)C(=O)N[C@@H](Cc1c[nH]c2ccccc12)C(=O)N[C@@H](CC(C)C)C(=O)N[C@@H](CCC(=O)O)C(=O)N[C@@H](CC(=O)O)C(=O)N[C@@H](CCC(=O)O)C(=O)N1CCC[C@H]1C(=O)N[C@@H](CO)C(=O)N[C@@H](CO)C(=O)NCC(=O)N[C@@H](C)C(=O)N1CCC[C@H]1C(=O)N1CCC[C@H]1C(=O)N1CCC[C@H]1C(=O)N[C@@H](CO)C(=O)O)C(C)C` [Compound A5] (H-YSHGTFTSDYSKYLD[Aib]KYAK([γGlu-γGlu-AEEA-C20 diacid])EFV[Aib]WLEDEPSSGAPPPS-OH; N-terminus assumed) as the compound, how does the EC50 [1] read?
**A.** 0.00251 nM

**Q.** What does the source list for `CC(C)C[C@H](NC(=O)[C@H](Cc1ccc(O)cc1)NC(=O)[C@H](CCCCN)NC(=O)[C@H](CO)NC(=O)[C@H](Cc1ccc(O)cc1)NC(=O)[C@H](CC(=O)O)NC(=O)[C@H](CO)NC(=O)[C@@H](NC(=O)[C@H](Cc1ccccc1)NC(=O)[C@@H](NC(=O)CNC(=O)[C@H](Cc1c[nH]cn1)NC(=O)[C@H](CO)NC(=O)[C@@H](N)Cc1ccc(O)cc1)[C@@H](C)O)[C@@H](C)O)C(=O)N[C@@H](CC(=O)O)C(=O)N[C@@H](CCCCNC(=O)CC[C@H](NC(=O)CC[C@H](NC(=O)COCCOCCNC(=O)CCCCCCCCCCCCCCCCCCC(=O)O)C(=O)O)C(=O)O)C(=O)N[C@@H](CCCCN)C(=O)N[C@@H](Cc1ccc(O)cc1)C(=O)N[C@@H](C)C(=O)N[C@@H](CCC(N)=O)C(=O)N[C@@H](CCC(=O)O)C(=O)N[C@@H](Cc1ccccc1)C(=O)NC(C)(C)C(=O)N[C@@H](CCC(N)=O)C(=O)N[C@@H](Cc1c[nH]c2ccccc12)C(=O)N[C@@H](CC(C)C)C(=O)N[C@@H](CCC(=O)O)C(=O)N[C@@H](CC(=O)O)C(=O)N[C@@H](CCC(=O)O)C(=O)N1CCC[C@H]1C(=O)N[C@@H](CO)C(=O)N[C@@H](CO)C(=O)NCC(=O)N[C@@H](C)C(=O)N1CCC[C@H]1C(=O)N1CCC[C@H]1C(=O)N1CCC[C@H]1C(=O)N[C@@H](CO)C(=O)O` [Compound A7] (H-YSHGTFTSDYSKYLDK([γGlu-γGlu-AEEA-C20 diacid])KYAQEF[Aib]QWLEDEPSSGAPPPS-OH; N-terminus assumed)?
**A.** EC50 [1]: 0.02 nM; EC50 [2]: > 1 nM

**Q.** How did the EC50 [1] turn out when `CC(C)C[C@H](NC(=O)[C@H](Cc1ccc(O)cc1)NC(=O)[C@H](CCCCN)NC(=O)[C@H](CO)NC(=O)[C@H](Cc1ccc(O)cc1)NC(=O)[C@H](CC(=O)O)NC(=O)[C@H](CO)NC(=O)[C@@H](NC(=O)[C@H](Cc1ccccc1)NC(=O)[C@@H](NC(=O)CNC(=O)[C@H](Cc1c[nH]cn1)NC(=O)[C@H](CO)NC(=O)[C@@H](N)Cc1ccc(O)cc1)[C@@H](C)O)[C@@H](C)O)C(=O)N[C@@H](CC(=O)O)C(=O)N[C@@H](CCCCNC(=O)CC[C@H](NC(=O)CC[C@H](NC(=O)COCCOCCNC(=O)CCCCCCCCCCCCCCCCCCC(=O)O)C(=O)O)C(=O)O)C(=O)N[C@@H](CCCCN)C(=O)N[C@@H](Cc1ccc(O)cc1)C(=O)N[C@@H](C)C(=O)N[C@@H](CCC(N)=O)C(=O)N[C@@H](CCC(=O)O)C(=O)N[C@@H](Cc1ccccc1)C(=O)NC(C)(C)C(=O)N[C@@H](CCC(=O)O)C(=O)N[C@@H](Cc1c[nH]c2ccccc12)C(=O)N[C@@H](CC(C)C)C(=O)N[C@@H](CCC(=O)O)C(=O)N[C@@H](CC(=O)O)C(=O)N[C@@H](CCC(=O)O)C(=O)N1CCC[C@H]1C(=O)N[C@@H](CO)C(=O)N[C@@H](CO)C(=O)NCC(=O)N[C@@H](C)C(=O)N1CCC[C@H]1C(=O)N1CCC[C@H]1C(=O)N1CCC[C@H]1C(=O)N[C@@H](CO)C(=O)O` [Compound A8] (H-YSHGTFTSDYSKYLDK([γGlu-γGlu-AEEA-C20 diacid])KYAQEF[Aib]EWLEDEPSSGAPPPS-OH; N-terminus assumed) was run?
**A.** 0.126 nM

**Q.** What about the EC50 [2] of the same compound?
**A.** > 1 nM
